Laboratory results as given in patent publication US11007270B2, “Polymer-semaxanib moiety conjugates” (Nektar Therapeutics, priority 2010, dated 2021).
Values belong to the molecule of their own block, whether it stands above or below them.

Tests used:
VEGFR-2 = VEGFR-2 (Homo sapiens, UniProt P35968); test: VEGFR-2 kinase inhibition, Caliper screening (fluorescent substrate phosphorylation, electrophoretic separation); details: for VEGFR-2 Fold: fold of IC50 relative to sunitinib
RET = RET (Homo sapiens, UniProt P07949); test: RET kinase inhibition, Caliper screening (fluorescent substrate phosphorylation, electrophoretic separation); details: for RET Fold: fold of IC50 relative to sunitinib
RET, sequence (P07949 29-1114, species assumed): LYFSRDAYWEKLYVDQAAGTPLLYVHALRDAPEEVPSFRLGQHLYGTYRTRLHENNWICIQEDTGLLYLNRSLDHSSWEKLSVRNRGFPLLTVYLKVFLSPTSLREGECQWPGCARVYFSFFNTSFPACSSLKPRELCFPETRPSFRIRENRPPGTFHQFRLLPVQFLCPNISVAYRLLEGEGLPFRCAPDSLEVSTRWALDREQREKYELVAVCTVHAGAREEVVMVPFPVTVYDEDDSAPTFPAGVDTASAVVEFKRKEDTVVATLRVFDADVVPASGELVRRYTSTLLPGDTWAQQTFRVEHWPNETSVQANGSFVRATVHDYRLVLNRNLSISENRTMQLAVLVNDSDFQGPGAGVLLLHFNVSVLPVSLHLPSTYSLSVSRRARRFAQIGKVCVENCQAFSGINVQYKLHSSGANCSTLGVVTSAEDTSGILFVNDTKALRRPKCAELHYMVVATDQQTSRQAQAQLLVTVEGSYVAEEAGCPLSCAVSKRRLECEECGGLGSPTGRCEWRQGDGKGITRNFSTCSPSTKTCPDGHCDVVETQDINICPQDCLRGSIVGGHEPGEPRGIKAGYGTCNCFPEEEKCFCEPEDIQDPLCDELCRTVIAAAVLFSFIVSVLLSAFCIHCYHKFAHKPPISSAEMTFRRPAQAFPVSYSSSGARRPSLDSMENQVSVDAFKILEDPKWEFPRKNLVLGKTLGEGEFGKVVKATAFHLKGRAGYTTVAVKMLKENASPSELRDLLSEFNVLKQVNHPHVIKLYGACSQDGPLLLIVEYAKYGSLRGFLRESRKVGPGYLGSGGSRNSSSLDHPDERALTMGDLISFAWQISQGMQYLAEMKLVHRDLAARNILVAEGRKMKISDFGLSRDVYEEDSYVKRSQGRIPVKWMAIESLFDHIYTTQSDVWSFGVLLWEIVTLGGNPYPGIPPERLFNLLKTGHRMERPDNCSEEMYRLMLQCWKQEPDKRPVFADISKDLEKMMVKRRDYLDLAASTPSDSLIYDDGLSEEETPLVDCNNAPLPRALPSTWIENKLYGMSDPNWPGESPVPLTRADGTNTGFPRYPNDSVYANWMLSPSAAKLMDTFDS

c-Kit = c-Kit (Homo sapiens, UniProt P10721); test: c-Kit tyrosine kinase inhibition, Caliper screening (fluorescent substrate phosphorylation, electrophoretic separation); assay type: biochemical; details: for IC50: averages of replicate wells; for c-Kit Fold: fold of IC50 relative to sunitinib
c-Kit, sequence (P10721 26-976): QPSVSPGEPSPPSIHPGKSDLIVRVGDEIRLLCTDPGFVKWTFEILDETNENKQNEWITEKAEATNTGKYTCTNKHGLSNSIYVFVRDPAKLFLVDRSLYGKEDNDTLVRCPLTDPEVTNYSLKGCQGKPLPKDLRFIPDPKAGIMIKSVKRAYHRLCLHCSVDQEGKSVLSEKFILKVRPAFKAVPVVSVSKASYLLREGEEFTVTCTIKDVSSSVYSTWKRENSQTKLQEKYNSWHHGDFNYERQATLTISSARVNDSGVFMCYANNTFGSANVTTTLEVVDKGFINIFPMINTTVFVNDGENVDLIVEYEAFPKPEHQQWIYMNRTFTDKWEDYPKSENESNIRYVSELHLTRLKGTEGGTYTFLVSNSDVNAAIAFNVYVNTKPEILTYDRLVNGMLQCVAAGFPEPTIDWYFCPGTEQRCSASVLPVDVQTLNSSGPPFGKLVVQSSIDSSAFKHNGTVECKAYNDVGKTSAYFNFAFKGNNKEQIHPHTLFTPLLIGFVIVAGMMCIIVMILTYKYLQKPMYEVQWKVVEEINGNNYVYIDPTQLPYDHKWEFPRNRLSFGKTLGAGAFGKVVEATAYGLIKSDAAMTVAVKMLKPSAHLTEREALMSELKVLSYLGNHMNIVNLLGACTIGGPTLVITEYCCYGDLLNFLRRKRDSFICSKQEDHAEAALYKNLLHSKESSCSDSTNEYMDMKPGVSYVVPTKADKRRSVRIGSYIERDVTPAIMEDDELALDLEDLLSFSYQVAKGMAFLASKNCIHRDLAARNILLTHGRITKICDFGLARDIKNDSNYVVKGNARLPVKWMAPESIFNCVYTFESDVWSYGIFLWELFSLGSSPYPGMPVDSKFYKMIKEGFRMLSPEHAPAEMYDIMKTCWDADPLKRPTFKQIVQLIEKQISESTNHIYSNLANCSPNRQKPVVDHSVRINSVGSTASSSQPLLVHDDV

[1] = concentration 1.0E−05 (unit not given)
[2] = concentration 1.0E−06 (unit not given)
[3] = concentration 1.0E−07 (unit not given)
[4] = concentration 1.0E−08 (unit not given)
[5] = concentration 1.0E−09 (unit not given)
[6] = concentration 1.0E−10 (unit not given)
[7] = concentration 3.0E−05 (unit not given)
[8] = concentration 3.0E−06 (unit not given)
[9] = concentration 3.0E−07 (unit not given)
[10] = concentration 3.0E−08 (unit not given)
[11] = concentration 3.0E−09 (unit not given)
[12] = concentration 3.0E−10 (unit not given)

VEGFR-2, sequence (P35968 20-1356, species assumed): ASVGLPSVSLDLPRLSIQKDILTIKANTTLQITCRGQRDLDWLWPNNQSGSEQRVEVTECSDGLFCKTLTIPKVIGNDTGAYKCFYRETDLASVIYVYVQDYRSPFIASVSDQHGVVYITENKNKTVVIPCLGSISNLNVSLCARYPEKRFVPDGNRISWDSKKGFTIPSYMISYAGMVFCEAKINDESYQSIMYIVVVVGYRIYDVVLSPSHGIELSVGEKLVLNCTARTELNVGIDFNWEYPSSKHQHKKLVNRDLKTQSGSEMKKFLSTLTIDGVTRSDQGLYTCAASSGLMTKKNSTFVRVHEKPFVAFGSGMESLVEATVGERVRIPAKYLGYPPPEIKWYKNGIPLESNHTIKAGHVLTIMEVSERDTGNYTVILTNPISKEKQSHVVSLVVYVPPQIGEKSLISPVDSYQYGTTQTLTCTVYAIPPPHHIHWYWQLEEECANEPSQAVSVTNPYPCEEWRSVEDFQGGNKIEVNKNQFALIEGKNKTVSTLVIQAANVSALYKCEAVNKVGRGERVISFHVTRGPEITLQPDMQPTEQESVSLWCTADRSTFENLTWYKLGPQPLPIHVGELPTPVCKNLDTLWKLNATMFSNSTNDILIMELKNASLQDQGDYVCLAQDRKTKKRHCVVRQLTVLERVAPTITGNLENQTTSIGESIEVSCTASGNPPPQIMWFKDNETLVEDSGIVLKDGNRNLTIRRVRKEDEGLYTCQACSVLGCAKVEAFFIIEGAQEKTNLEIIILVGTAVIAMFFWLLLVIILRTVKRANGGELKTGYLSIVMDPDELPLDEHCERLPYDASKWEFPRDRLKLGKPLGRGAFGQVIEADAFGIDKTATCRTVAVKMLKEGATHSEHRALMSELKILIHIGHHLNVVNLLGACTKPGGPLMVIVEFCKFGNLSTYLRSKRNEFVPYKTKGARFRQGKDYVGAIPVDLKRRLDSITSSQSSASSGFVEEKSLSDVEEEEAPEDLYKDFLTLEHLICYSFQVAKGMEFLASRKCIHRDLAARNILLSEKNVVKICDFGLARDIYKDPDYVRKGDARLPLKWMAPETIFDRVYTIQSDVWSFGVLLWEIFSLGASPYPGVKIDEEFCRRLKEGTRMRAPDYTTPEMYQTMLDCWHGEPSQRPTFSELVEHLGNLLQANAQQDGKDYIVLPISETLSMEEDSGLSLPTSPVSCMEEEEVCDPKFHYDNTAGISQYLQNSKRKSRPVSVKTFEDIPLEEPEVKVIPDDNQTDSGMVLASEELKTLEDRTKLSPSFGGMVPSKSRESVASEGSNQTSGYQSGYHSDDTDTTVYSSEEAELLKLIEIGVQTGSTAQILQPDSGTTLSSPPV

IC50 (VEGFR-2): 310 nM
VEGFR-2 AVG % Activity at Specific Concentration (VEGFR-2; [1]): −3%
VEGFR-2 AVG % Activity at Specific Concentration (VEGFR-2; [2]): 19%
VEGFR-2 AVG % Activity at Specific Concentration (VEGFR-2; [3]): 80%
VEGFR-2 AVG % Activity at Specific Concentration (VEGFR-2; [4]): 95%
VEGFR-2 AVG % Activity at Specific Concentration (VEGFR-2; [5]): 95%
VEGFR-2 AVG % Activity at Specific Concentration (VEGFR-2; [6]): 98%
VEGFR-2 AVG % Activity at Specific Concentration (VEGFR-2; [7]): −6%
VEGFR-2 AVG % Activity at Specific Concentration (VEGFR-2; [8]): 0%
VEGFR-2 AVG % Activity at Specific Concentration (VEGFR-2; [9]): 46%
VEGFR-2 AVG % Activity at Specific Concentration (VEGFR-2; [10]): 90%
VEGFR-2 AVG % Activity at Specific Concentration (VEGFR-2; [11]): 93%
VEGFR-2 AVG % Activity at Specific Concentration (VEGFR-2; [12]): 94%
VEGFR-2 Fold (VEGFR-2): 6.33
IC50 (RET): 620 nM
RET AVG % Activity at Specific Concentration (RET; [1]): 2%
RET AVG % Activity at Specific Concentration (RET; [2]): 38%
RET AVG % Activity at Specific Concentration (RET; [3]): 85%
RET AVG % Activity at Specific Concentration (RET; [4]): 98%
RET AVG % Activity at Specific Concentration (RET; [5]): 99%
RET AVG % Activity at Specific Concentration (RET; [6]): 98%
RET AVG % Activity at Specific Concentration (RET; [7]): 0%
RET AVG % Activity at Specific Concentration (RET; [8]): 14%
RET AVG % Activity at Specific Concentration (RET; [9]): 68%
RET AVG % Activity at Specific Concentration (RET; [10]): 93%
RET AVG % Activity at Specific Concentration (RET; [11]): 99%
RET AVG % Activity at Specific Concentration (RET; [12]): 98%
RET Fold (RET): 14.42
IC50 (c-Kit): 320 nM
c-Kit AVG % Activity at Specific Concentration (c-Kit; [1]): −1%
c-Kit AVG % Activity at Specific Concentration (c-Kit; [2]): 11%
c-Kit AVG % Activity at Specific Concentration (c-Kit; [3]): 82%
c-Kit AVG % Activity at Specific Concentration (c-Kit; [4]): 96%
c-Kit AVG % Activity at Specific Concentration (c-Kit; [5]): 97%
c-Kit AVG % Activity at Specific Concentration (c-Kit; [6]): 97%
c-Kit AVG % Activity at Specific Concentration (c-Kit; [7]): −1%
c-Kit AVG % Activity at Specific Concentration (c-Kit; [8]): 1%
c-Kit AVG % Activity at Specific Concentration (c-Kit; [9]): 49%
c-Kit AVG % Activity at Specific Concentration (c-Kit; [10]): 96%
c-Kit AVG % Activity at Specific Concentration (c-Kit; [11]): 98%
c-Kit AVG % Activity at Specific Concentration (c-Kit; [12]): 96%
c-Kit Fold (c-Kit): 4.30
Compound: COCCOCCOCCOCCOCCOCCOCCNC(=O)c1c(C)[nH]c(/C=C2\C(=O)Nc3ccc(F)cc32)c1C [mPEG7-semaxanib, (Z)-5-((5-fluoro-2-oxoindolin-3-ylidene)methyl)-2,4-dimethyl-1H-pyrrole-3-mPEG7-amide]

IC50 (VEGFR-2): 110 nM
VEGFR-2 AVG % Activity at Specific Concentration (VEGFR-2; [1]): −3%
VEGFR-2 AVG % Activity at Specific Concentration (VEGFR-2; [2]): 0%
VEGFR-2 AVG % Activity at Specific Concentration (VEGFR-2; [3]): 47%
VEGFR-2 AVG % Activity at Specific Concentration (VEGFR-2; [4]): 90%
VEGFR-2 AVG % Activity at Specific Concentration (VEGFR-2; [5]): 87%
VEGFR-2 AVG % Activity at Specific Concentration (VEGFR-2; [6]): 93%
VEGFR-2 AVG % Activity at Specific Concentration (VEGFR-2; [7]): −6%
VEGFR-2 AVG % Activity at Specific Concentration (VEGFR-2; [8]): −3%
VEGFR-2 AVG % Activity at Specific Concentration (VEGFR-2; [9]): 16%
VEGFR-2 AVG % Activity at Specific Concentration (VEGFR-2; [10]): 78%
VEGFR-2 AVG % Activity at Specific Concentration (VEGFR-2; [11]): 90%
VEGFR-2 AVG % Activity at Specific Concentration (VEGFR-2; [12]): 93%
VEGFR-2 Fold (VEGFR-2): 2.24
IC50 (RET): 230 nM
RET AVG % Activity at Specific Concentration (RET; [1]): −1%
RET AVG % Activity at Specific Concentration (RET; [2]): 12%
RET AVG % Activity at Specific Concentration (RET; [3]): 68%
RET AVG % Activity at Specific Concentration (RET; [4]): 96%
RET AVG % Activity at Specific Concentration (RET; [5]): 92%
RET AVG % Activity at Specific Concentration (RET; [6]): 92%
RET AVG % Activity at Specific Concentration (RET; [7]): −1%
RET AVG % Activity at Specific Concentration (RET; [8]): 3%
RET AVG % Activity at Specific Concentration (RET; [9]): 38%
RET AVG % Activity at Specific Concentration (RET; [10]): 90%
RET AVG % Activity at Specific Concentration (RET; [11]): 95%
RET AVG % Activity at Specific Concentration (RET; [12]): 94%
RET Fold (RET): 5.35
IC50 (c-Kit): 120 nM
c-Kit AVG % Activity at Specific Concentration (c-Kit; [1]): −1%
c-Kit AVG % Activity at Specific Concentration (c-Kit; [2]): 2%
c-Kit AVG % Activity at Specific Concentration (c-Kit; [3]): 58%
c-Kit AVG % Activity at Specific Concentration (c-Kit; [4]): 97%
c-Kit AVG % Activity at Specific Concentration (c-Kit; [5]): 104%
c-Kit AVG % Activity at Specific Concentration (c-Kit; [6]): 100%
c-Kit AVG % Activity at Specific Concentration (c-Kit; [7]): −1%
c-Kit AVG % Activity at Specific Concentration (c-Kit; [8]): 1%
c-Kit AVG % Activity at Specific Concentration (c-Kit; [9]): 16%
c-Kit AVG % Activity at Specific Concentration (c-Kit; [10]): 88%
c-Kit AVG % Activity at Specific Concentration (c-Kit; [11]): 98%
c-Kit AVG % Activity at Specific Concentration (c-Kit; [12]): 102%
c-Kit Fold (c-Kit): 1.60
Compound: COCCOCCOCCNC(=O)c1c(C)[nH]c(/C=C2\C(=O)Nc3ccc(F)cc32)c1C [mPEG3-semaxanib, (Z)-5-((5-fluoro-2-oxoindolin-3-ylidene)methyl)-2,4-dimethyl-1H-pyrrole-3-mPEG3-amide]

IC50 (VEGFR-2): 180 nM
VEGFR-2 AVG % Activity at Specific Concentration (VEGFR-2; [1]): −4%
VEGFR-2 AVG % Activity at Specific Concentration (VEGFR-2; [2]): 12%
VEGFR-2 AVG % Activity at Specific Concentration (VEGFR-2; [3]): 56%
VEGFR-2 AVG % Activity at Specific Concentration (VEGFR-2; [4]): 88%
VEGFR-2 AVG % Activity at Specific Concentration (VEGFR-2; [5]): 92%
VEGFR-2 AVG % Activity at Specific Concentration (VEGFR-2; [6]): 86%
VEGFR-2 AVG % Activity at Specific Concentration (VEGFR-2; [7]): −6%
VEGFR-2 AVG % Activity at Specific Concentration (VEGFR-2; [8]): −4%
VEGFR-2 AVG % Activity at Specific Concentration (VEGFR-2; [9]): 35%
VEGFR-2 AVG % Activity at Specific Concentration (VEGFR-2; [10]): 89%
VEGFR-2 AVG % Activity at Specific Concentration (VEGFR-2; [11]): 96%
VEGFR-2 AVG % Activity at Specific Concentration (VEGFR-2; [12]): 97%
VEGFR-2 Fold (VEGFR-2): 3.67
IC50 (RET): 350 nM
RET AVG % Activity at Specific Concentration (RET; [1]): 0%
RET AVG % Activity at Specific Concentration (RET; [2]): 22%
RET AVG % Activity at Specific Concentration (RET; [3]): 78%
RET AVG % Activity at Specific Concentration (RET; [4]): 99%
RET AVG % Activity at Specific Concentration (RET; [5]): 89%
RET AVG % Activity at Specific Concentration (RET; [6]): 100%
RET AVG % Activity at Specific Concentration (RET; [7]): −1%
RET AVG % Activity at Specific Concentration (RET; [8]): 5%
RET AVG % Activity at Specific Concentration (RET; [9]): 52%
RET AVG % Activity at Specific Concentration (RET; [10]): 95%
RET AVG % Activity at Specific Concentration (RET; [11]): 100%
RET AVG % Activity at Specific Concentration (RET; [12]): 99%
RET Fold (RET): 8.14
IC50 (c-Kit): 170 nM
c-Kit AVG % Activity at Specific Concentration (c-Kit; [1]): −1%
c-Kit AVG % Activity at Specific Concentration (c-Kit; [2]): 3%
c-Kit AVG % Activity at Specific Concentration (c-Kit; [3]): 70%
c-Kit AVG % Activity at Specific Concentration (c-Kit; [4]): 97%
c-Kit AVG % Activity at Specific Concentration (c-Kit; [5]): 99%
c-Kit AVG % Activity at Specific Concentration (c-Kit; [6]): 97%
c-Kit AVG % Activity at Specific Concentration (c-Kit; [7]): −1%
c-Kit AVG % Activity at Specific Concentration (c-Kit; [8]): −1%
c-Kit AVG % Activity at Specific Concentration (c-Kit; [9]): 24%
c-Kit AVG % Activity at Specific Concentration (c-Kit; [10]): 94%
c-Kit AVG % Activity at Specific Concentration (c-Kit; [11]): 93%
c-Kit AVG % Activity at Specific Concentration (c-Kit; [12]): 100%
c-Kit Fold (c-Kit): 2.30
Compound: COCCOCCOCCOCCNC(=O)c1c(C)[nH]c(/C=C2\C(=O)Nc3ccc(F)cc32)c1C [mPEG4-semaxanib, (Z)-5-((5-fluoro-2-oxoindolin-3-ylidene)methyl)-2,4-dimethyl-1H-pyrrole-3-mPEG4-amide]
